Data reported in patent publication US4950605A, “FR-900493 substance, a process for its production and a pharmaceutical composition containing the same” (Fujisawa Pharmaceutical Co., Ltd., priority 1988, dated 1990).
Values after ≈ are worked out from the molar mass of the structure shown.

Tests used:
Acute toxicity in mice = assay type: in vivo; settings: intravenous; ddY mice, 4 weeks age, male
Description: The median lethal dose (LD50) of the FR-900493 substance in mice (ddY, 4 weeks age, male) by intravenous administration was >500 mg/kg.

[1] = tested on: Staphylococcus aureus 1601-47; assay: Protective efficacy in experimental infections in mice; assay type: in vivo, ddY mouse (infected with Staphylococcus aureus 1601-47); settings: 30 mg/kg subcutaneous, one hour after intraperitoneal infection with 3×10^6 cells; male ddY mice 5 weeks; observed 2 days
Description: Protective efficacy in experimental infections in mice: The in vivo activity of the FR-900493 substance against experimental infections due to Staphylococcus aureus 1601-47 was examined. One hour after the intraperitoneal injection of 3×10^6 cell of the test strain to each ddY mouse (male, 5 weeks age), the solution of the FR-900493 substance was administered subcutaneously.

[2] = tested on: Bacillus subtilis ATCC-6633; assay: Antimicrobial activity, MIC on 1/2 Mueller-Hinton agar; assay type: cell-based; settings: 37° C., 24 hours
Description: (§1) Antimicrobial activities: (a) Test Method One loopful of an overnight culture (10^8 cells/ml) of each test bacteria in bouillon was streaked on 1/2 Mueller-Hinton agar containing the graded concentration of the FR-900493 substance and the minimal inbibitory concentration (MIC) was determined after incubation at 37° C. for 24 hours.

[3] = tested on: Staphylococcus aureus 1601-6; assay: as above; assay type: cell-based; settings: 37° C., 24 hours
Description: as §1

[4] = tested on: Staphylococcus aureus 209P JC-1; assay: as above; assay type: cell-based; settings: 37° C., 24 hours
Description: as §1

Compound: CN(CCCN)[C@H](C(=O)O)[C@H](O[C@@H]1O[C@H](CN)[C@@H](O)[C@H]1O)[C@H]1O[C@@H](n2ccc(=O)[nH]c2=O)[C@H](O)[C@@H]1O [FR-900493 substance]
- median lethal dose (LD50) (Acute toxicity in mice): > 500 mg/kg
- Survival [1]: 100%
- minimal inhibitory concentration (MIC) [2]: 3.13 µg/mL (≈ 6.02 µM)
- minimal inhibitory concentration (MIC) [3]: 6.25 µg/mL (≈ 12 µM)
- minimal inhibitory concentration (MIC) [4]: 3.13 µg/mL (≈ 6.02 µM)
